The numbers were not newly measured in PubChem BioAssay AID1259409 (Chemical Carcinogenesis Research Information System (CCRIS), 2018), which cites them from elsewhere.

This data set has as its system rodent chemically induced tumor inhibition, incidence and multiplicity. In words: CCRIS tumor inhibitor studies. The note with it: Species: MOUSE; for outcome: Carcinogen: N-BUTYL-N-(4-HYDROXYBUTYL)NITROSAMINE [3817-11-6], Route [Inhibitor]: INTRAGASTRIC, Strain/Sex: C57BL/6/FEMALE, Promoter: NONE; for tumour outcome (control, treated, inhibition, significance): Carcinogen: N-BUTYL-N-(4-HYDROXYBUTYL)NITROSAMINE, 3817-11-6, Route [Inhibitor]: ORAL, Strain/Sex: BDF/MALE, Target Tissue: Type of Lesion: URINARY BLADDER: TRANSITIONAL CELL CARCINOMA, Dose [Carcinogen]: 7.5 MG 1/WK FOR 8 WK, Promoter: NONE USED.

As to `CN1CCN(c2c(F)cc3c(=O)c(C(=O)O)cn(CCF)c3c2F)CC1`, the outcome by setting is: (Dose [Inhibitor]: 10 MG ONCE/D FOR 1 WK BEGINNING 1 WK PRIOR TO FIRST CARCINOGEN DOSE (STUDY DURATION: 13 WK), Target Tissue: Type of Lesion: URINARY BLADDER: CARCINOMA IN SITU, Dose [Carcinogen]: 0.05% IN DRINKING WATER FOR 8 WK BEGINNING IMMEDIATELY POST LAST INHIBITOR DOSE (STUDY DURATION: 13 WK)) 1, 0, not significant; (Dose [Inhibitor]: 10 MG ONCE/D FOR 1 WK BEGINNING 1 WK PRIOR TO FIRST CARCINOGEN DOSE (STUDY DURATION: 13 WK), Target Tissue: Type of Lesion: URINARY BLADDER: INVASIVE CARCINOMA, Dose [Carcinogen]: 0.05% IN DRINKING WATER FOR 8 WK BEGINNING IMMEDIATELY POST LAST INHIBITOR DOSE (STUDY DURATION: 13 WK)) 0, 0, not significant; (Dose [Inhibitor]: 10 MG ONCE/D FOR 1 WK BEGINNING 1 WK PRIOR TO FIRST CARCINOGEN DOSE (STUDY DURATION: 17 WK), Target Tissue: Type of Lesion: URINARY BLADDER: CARCINOMA IN SITU, Dose [Carcinogen]: 0.05% IN DRINKING WATER FOR 8 WK BEGINNING IMMEDIATELY POST LAST INHIBITOR DOSE (STUDY DURATION: 17 WK)) 1, 0, not significant; (Dose [Inhibitor]: 10 MG ONCE/D FOR 1 WK BEGINNING 1 WK PRIOR TO FIRST CARCINOGEN DOSE (STUDY DURATION: 17 WK), Target Tissue: Type of Lesion: URINARY BLADDER: INVASIVE CARCINOMA, Dose [Carcinogen]: 0.05% IN DRINKING WATER FOR 8 WK BEGINNING IMMEDIATELY POST LAST INHIBITOR DOSE (STUDY DURATION: 17 WK)) 1, 0, not significant; (Dose [Inhibitor]: 10 MG ONCE/D FOR 1 WK BEGINNING 1 WK PRIOR TO FIRST CARCINOGEN DOSE (STUDY DURATION: 21 WK), Target Tissue: Type of Lesion: URINARY BLADDER: CARCINOMA IN SITU, Dose [Carcinogen]: 0.05% IN DRINKING WATER FOR 12 WK BEGINNING IMMEDIATELY POST LAST INHIBITOR DOSE (STUDY DURATION: 21 WK)) 0, 1, not significant; (Dose [Inhibitor]: 10 MG ONCE/D FOR 1 WK BEGINNING 1 WK PRIOR TO FIRST CARCINOGEN DOSE (STUDY DURATION: 21 WK), Target Tissue: Type of Lesion: URINARY BLADDER: INVASIVE CARCINOMA, Dose [Carcinogen]: 0.05% IN DRINKING WATER FOR 12 WK BEGINNING IMMEDIATELY POST LAST INHIBITOR DOSE (STUDY DURATION: 21 WK)) 9, 6, not significant. Also, the outcome is, setting by setting: (Dose [Inhibitor]: 50 MG ONCE/D FOR 1 WK BEGINNING 1 WK PRIOR TO FIRST CARCINOGEN DOSE (STUDY DURATION: 13 WK), Target Tissue: Type of Lesion: URINARY BLADDER: CARCINOMA IN SITU, Dose [Carcinogen]: 0.05% IN DRINKING WATER FOR 8 WK BEGINNING IMMEDIATELY POST LAST INHIBITOR DOSE (STUDY DURATION: 13 WK)) 1, 0, not significant; (Dose [Inhibitor]: 50 MG ONCE/D FOR 1 WK BEGINNING 1 WK PRIOR TO FIRST CARCINOGEN DOSE (STUDY DURATION: 13 WK), Target Tissue: Type of Lesion: URINARY BLADDER: INVASIVE CARCINOMA, Dose [Carcinogen]: 0.05% IN DRINKING WATER FOR 8 WK BEGINNING IMMEDIATELY POST LAST INHIBITOR DOSE (STUDY DURATION: 13 WK)) 0, 0, not significant; (Dose [Inhibitor]: 50 MG ONCE/D FOR 1 WK BEGINNING 1 WK PRIOR TO FIRST CARCINOGEN DOSE (STUDY DURATION: 17 WK), Target Tissue: Type of Lesion: URINARY BLADDER: CARCINOMA IN SITU, Dose [Carcinogen]: 0.05% IN DRINKING WATER FOR 8 WK BEGINNING IMMEDIATELY POST LAST INHIBITOR DOSE (STUDY DURATION: 17 WK)) 1, 0, not significant; (Dose [Inhibitor]: 50 MG ONCE/D FOR 1 WK BEGINNING 1 WK PRIOR TO FIRST CARCINOGEN DOSE (STUDY DURATION: 17 WK), Target Tissue: Type of Lesion: URINARY BLADDER: INVASIVE CARCINOMA, Dose [Carcinogen]: 0.05% IN DRINKING WATER FOR 8 WK BEGINNING IMMEDIATELY POST LAST INHIBITOR DOSE (STUDY DURATION: 17 WK)) 1, 0, not significant; (Dose [Inhibitor]: 50 MG ONCE/D FOR 1 WK BEGINNING 1 WK PRIOR TO FIRST CARCINOGEN DOSE (STUDY DURATION: 21 WK), Target Tissue: Type of Lesion: URINARY BLADDER: CARCINOMA IN SITU, Dose [Carcinogen]: 0.05% IN DRINKING WATER FOR 12 WK BEGINNING IMMEDIATELY POST LAST INHIBITOR DOSE (STUDY DURATION: 21 WK)) 0, 2, not significant; (Dose [Inhibitor]: 50 MG ONCE/D FOR 1 WK BEGINNING 1 WK PRIOR TO FIRST CARCINOGEN DOSE (STUDY DURATION: 21 WK), Target Tissue: Type of Lesion: URINARY BLADDER: INVASIVE CARCINOMA, Dose [Carcinogen]: 0.05% IN DRINKING WATER FOR 12 WK BEGINNING IMMEDIATELY POST LAST INHIBITOR DOSE (STUDY DURATION: 21 WK)) 9, 5, not significant.

Turning to `CCNC(=O)\C=C(C)/C=C/C=C(C)/C=C/C1=C(C)CCCC1(C)C`, the “tumour outcome (control, treated, inhibition, significance)” value by setting is: (Dose [Inhibitor]: 1.5 MMOL/KG DIET DAILY FOR 153 D STARTING ONE WK AFTER THE FINAL CARCINOGEN DOSE (STUDY DURATION: 210 D)) 35/99 (35%), 19/96 (20%), 43%, p<0.05; (Dose [Inhibitor]: 1.5 MMOL/KG IN DIET DAILY FOR 153 D STARTING ONE WK AFTER THE LAST CARCINOGEN DOSE (STUDY DURATION: 210 D)) 35/99 (35%), 19/96 (20%), 43%, p<0.05.
